Data on 20 compounds can be found in ChEMBL document CHEMBL1914290, “3,4-Disubstituted oxazolidin-2-ones as constrained ceramide analogs with anticancer activities” (Bioorg Med Chem, 2011).

Each structure is given as a SMILES string. The source made the active and inactive calls. No cut-off for these calls is given here.

Experiment [1] relates to HL-60. The experiment can be described thus: Antileukemic activity against human HL60 cells at 20 uM after 16 hrs by MTT assay. Format: functional, cell-based.
Experiment [2] has as its system HL-60. Nature of the experiment: Induction of apoptosis in human HL60 cells assessed as DNA fragmentation at 20 uM after 15 hrs. Format: functional, cell-based.

Regarding `CCCCCCCCCCCCC/C=C/[C@@H](O)[C@@H]1COC(=O)N1C(=O)C(C)(C)C`, the outcome in the experiment with HL-60 [1] was Active.

Regarding `CCCCCCCCCCCCC/C=C/[C@@H](O)[C@@H]1COC(=O)N1C(=O)CCCCCCCCCCCCCCC`, the result in the experiment with HL-60 [2] was Active. Besides, the result in the experiment on HL-60 [1] was inactive.

For `CCCCCCCCCCCCC/C=C/[C@@H](O)[C@@H]1COC(=O)N1C(=O)C1CCCC1`, the result in the experiment with HL-60 [2] and with HL-60 [1] was Active.

For `CCCC/C=C/[C@@H](O)[C@@H]1COC(=O)N1C(=O)C1CCCC1`, the result in the experiment on HL-60 [1] was inactive.

As to `O=C1OC[C@@H]([C@H](O)/C=C/C2CCCC2)N1C(=O)C1CCCC1`, the result in the experiment with HL-60 [1] was inactive.

Turning to `CCCCCCCCCCCCC/C=C/[C@@H](O)[C@@H]1COC(=O)N1C(=O)CC`, the result in the experiment on HL-60 [2] and with HL-60 [1] was Active.

Turning to `CCCCCC/C=C/[C@@H](O)[C@@H]1COC(=O)N1C(=O)C1CCCC1`, the outcome with HL-60 [1] was inactive.

For `CCCCCCCCCCCCC/C=C/[C@@H](O)[C@@H]1COC(=O)N1C(=O)c1ccccc1OC`, the result in the experiment on HL-60 [1] was Active.

For the compound `O=C1OC[C@@H]([C@H](O)/C=C/Cc2ccccc2)N1C(=O)C1CCCC1`, the result with HL-60 [1] was inactive.

On to `CCCCCCCCCCCCC/C=C/[C@@H](O)[C@@H]1COC(=O)N1C(=O)c1ccco1`, for which, in the experiment on HL-60 [1], the outcome was Active.

As for `CCCCCCCCCCCCC/C=C/[C@@H](O)[C@@H]1COC(=O)N1C(=O)c1ccccc1`, the outcome in the experiment with HL-60 [2] and in the experiment with HL-60 [1] was Active.

As to `CCCCCCCCCCCCC/C=C/[C@@H](O)[C@@H]1COC(=O)N1C(=O)C(C)C`, the result in the experiment with HL-60 [2] and in the experiment on HL-60 [1] was Active.

`O=C1OC[C@@H]([C@H](O)/C=C/C2CCCCC2)N1C(=O)C1CCCC1`: the result with HL-60 [1] was inactive.

On to `CCCCCCCCCCCCC/C=C/[C@@H](O)[C@@H]1COC(=O)N1C(=O)Cc1ccccc1`, for which the result with HL-60 [1] was inactive.

For `CCCCCCCCCC/C=C/[C@@H](O)[C@@H]1COC(=O)N1C(=O)C1CCCC1`, the result in the experiment with HL-60 [1] was Active.

Regarding `CCCCCCCCCCCCC/C=C/[C@@H](O)[C@@H]1COC(=O)N1C(=O)c1cccc2ccccc12`, the outcome in the experiment with HL-60 [1] was Active.

In the case of `CCCCCCCCCCCCC/C=C/[C@@H](O)[C@@H]1COC(=O)N1C(=O)c1ccc([N+](=O)[O-])cc1`, the outcome with HL-60 [2] and in the experiment with HL-60 [1] was Active.

Regarding `CCCCCCCCCCCCC/C=C/[C@@H](O)[C@@H]1COC(=O)N1C(C)=O`, the result in the experiment with HL-60 [2] and in the experiment with HL-60 [1] was Active.

In the case of `CCCCCCCCCCCCC/C=C/[C@@H](O)[C@@H]1COC(=O)N1C(=O)C/C=C/c1ccccc1`, in the experiment on HL-60 [1], the outcome was inactive.

With `CCCCCCCC/C=C/[C@@H](O)[C@@H]1COC(=O)N1C(=O)C1CCCC1`, the outcome with HL-60 [1] was inactive.
